Data on eight compounds can be found in ChEMBL document CHEMBL4354782, “Quinolone antibiotics” (Medchemcomm, 2019).

A short description of data set [1]: Toxicity in human assessed as arthralgia effect.
Data set [2] is described as follows: Toxicity in human assessed as CNS effect by measuring alteration in mentation.
The next data set deals with Escherichia coli. The data set can be described thus: Antibacterial activity against Escherichia coli by agar diffusion method. It counts as functional. (In general: In agar diffusion tests the substance spreads into inoculated agar from a disc or well.)
Another data set has as its system Pseudomonas aeruginosa. As to the kind of experiment: Antibacterial activity against Pseudomonas aeruginosa by agar diffusion method. It counts as functional.
A further data set has as its system Klebsiella. As to the kind of experiment: Antibacterial activity against Klebsiella by agar diffusion method. The format is functional.
A further data set concerns Haemophilus influenzae. As to the kind of experiment: Antibacterial activity against Haemophilus influenzae with horse blood by agar diffusion method. It counts as functional.
The next data set deals with Staphylococcus aureus. The data set can be described thus: Antibacterial activity against Staphylococcus aureus by agar diffusion method. The format is functional.
A further data set deals with Streptococcus pneumoniae. The data set can be described thus: Antibacterial activity against Streptococcus pneumoniae by agar diffusion method. The format is functional.
Another data set relates to Streptococcus pyogenes. The data set can be described thus: Antibacterial activity against Streptococcus pyogenes by agar diffusion method. It counts as functional.
The next data set has as its system Enterococcus. The data set can be described thus: Antibacterial activity against Enterococcus by agar diffusion method. It counts as functional.
The nature of data set [3]: Cmax in human at 0.4 g, po. The format is ADME. The arrangement: dose 0.4 g, route oral. The settings on record: in vivo.
The nature of data set [4]: AUC in human at 0.4 g, po. The settings on record: in vivo. The format is ADME.
The nature of data set [5]: Half life in human at 0.4 g, po. It counts as ADME. The settings on record: in vivo.
Data set [6] can be described thus: Protein binding in human at 0.4 g, po. The format is ADME. The settings on record: in vivo, read-out: PB (converted).
A short description of data set [7]: Cmax in human at 0.4 g, po by HPLC analysis. The format is ADME, organism-based. Further details: dose 0.4 g, route oral. As to conditions: in vivo.
Data set [8] in a line: AUC in human at 0.4 g, po by HPLC analysis. It counts as ADME, organism-based. The settings on record: in vivo.
A further data set concerns Bacteroides fragilis. The data set can be described thus: Antibacterial activity against Bacteroides fragilis by agar diffusion method. The format is functional.
A short description of data set [9]: Half life in human at 1 g, po administered for 4 times. As to conditions: in vivo. The format is ADME, organism-based.
The next data set deals with Clostridium perfringens. As to the kind of experiment: microbe, parasite or virus in culture.
Data set [10] is described as follows: Cmax in human at 0.4 g, po bid. The format is ADME, organism-based. Further details: dose 0.4 g, route oral. The settings on record: in vivo.
Data set [11] is described as follows: AUC in human at 0.4 g, po bid. The format is ADME, organism-based. As to conditions: in vivo.
The nature of data set [12]: Half life in human at 0.4 g, po bid. The settings on record: in vivo. The format is ADME, organism-based.
Data set [13] is described as follows: Protein binding in human at 0.4 g, po bid. It counts as ADME, organism-based. The settings on record: in vivo, read-out: PB (converted).
Data set [14] in a line: Toxicity in human assessed as gastrointestinal effect.
Another data set is filed under the species Homo sapiens. The data set can be described thus: Phototoxicity in human. The settings on record: in vivo. It counts as organism-based.
A short description of data set [15]: Cardiotoxicity in human QTc prolongation. The format is toxicity.
Data set [16] is described as follows: Cmax in human at 0.3 g, po. It counts as ADME. The arrangement: dose 0.3 g, route oral. As to conditions: in vivo.
The nature of data set [17]: AUC in human at 0.3 g, po. As to conditions: in vivo. The format is ADME.
Data set [18] can be described thus: Toxicity in human assessed as CNS effect by measuring dizziness.
A short description of data set [19]: Toxicity in human assessed as hepatic eosinophilia effect.

Values after ≈ are worked out from the molar mass of the structure shown. Where only a bound is given, the exact number is not on record here.

Turning to `C[C@H]1COc2c(N3CCN(C)CC3)c(F)cc3c(=O)c(C(=O)O)cn1c23.C[C@H]1COc2c(N3CCN(C)CC3)c(F)cc3c(=O)c(C(=O)O)cn1c23.O` [LEVOFLOXACIN], the Activity in data set [1] was 0.5 to 2%; in data set [2], 0.026%.

As a reminder, the Cmax is the peak of the concentration-time curve. A word on the AUC: it is the area under the concentration-time curve, a measure of exposure. High values mean high exposure, low ones low exposure. The term half-life denotes the time in which the quantity being followed falls by half. Low values mean fast loss, high ones slow loss. For the compound `CCn1cc(C(=O)O)c(=O)c2cc(F)c(N3CCNC(C)C3)c(F)c21` (stereo not drawn) [LOMEFLOXACIN], the MIC90 with Escherichia coli is 0.06 µg/mL (≈ 0.171 µM); with Pseudomonas aeruginosa it was 2 µg/mL (≈ 5.69 µM); with Klebsiella it was 0.25 µg/mL (≈ 0.712 µM); in the data set on Haemophilus influenzae, 0.06 µg/mL (≈ 0.171 µM); against Staphylococcus aureus, 2 µg/mL (≈ 5.69 µM); in the data set on Streptococcus pneumoniae it was 4 µg/mL (≈ 11.4 µM). Besides, the MIC90 against Streptococcus pyogenes and with Enterococcus was 4 µg/mL (≈ 11.4 µM) each time. Further, in data set [3], the peak level (Cmax) was 2800 ng/mL. Also, the AUC in data set [4] was 26000 ng·h/mL. In addition, in data set [5], the half-life was 8 h. The fraction unbound in data set [6] is 0.9.

Consider `COc1c(N2C[C@@H]3CCCN[C@@H]3C2)c(F)cc2c(=O)c(C(=O)O)cn(C3CC3)c12` [MOXIFLOXACIN], for which the MIC90 in the data set with Escherichia coli amounted to 0.06 µg/mL (≈ 0.149 µM); against Pseudomonas aeruginosa, 8 µg/mL (≈ 19.9 µM); against Klebsiella it was 0.12 µg/mL (≈ 0.299 µM); against Haemophilus influenzae, 0.06 µg/mL (≈ 0.149 µM); against Staphylococcus aureus it was 0.06 µg/mL (≈ 0.149 µM); against Enterococcus, 2 µg/mL (≈ 4.98 µM). The compound further gave a Cmax in [7] of 3100 ng/mL. In data set [8], this compound showed an AUC of 30000 ng·h/mL.

As to `CCn1cc(C(=O)O)c(=O)c2ccc(C)nc21` [NALIDIXIC ACID], the MIC90 against Escherichia coli is 8 µg/mL (≈ 34.4 µM); against Pseudomonas aeruginosa, more than 64 µg/mL; against Klebsiella, 16 µg/mL (≈ 68.9 µM); with Bacteroides fragilis, more than 64 µg/mL; in the data set on Haemophilus influenzae, 2 µg/mL (≈ 8.61 µM); in the data set on Staphylococcus aureus, more than 64 µg/mL. Moreover, the MIC90 with Streptococcus pneumoniae, with Streptococcus pyogenes, in the data set on Enterococcus and with Clostridium perfringens was more than 64 µg/mL throughout. The compound also gave a half-life in data set [9] of 1.5 h.

For `CCn1cc(C(=O)O)c(=O)c2cc(F)c(N3CCNCC3)cc21` [NORFLOXACIN], the MIC90 is 0.12 µg/mL (≈ 0.376 µM) in the data set on Escherichia coli; 2 µg/mL (≈ 6.26 µM) in the data set on Pseudomonas aeruginosa; 0.5 µg/mL (≈ 1.57 µM) with Klebsiella; more than 64 µg/mL with Bacteroides fragilis; 0.06 µg/mL (≈ 0.188 µM) in the data set with Haemophilus influenzae; 1 µg/mL (≈ 3.13 µM) in the data set on Staphylococcus aureus. The MIC90 came to 16 µg/mL (≈ 50.1 µM) in the data set with Streptococcus pneumoniae, 4 µg/mL (≈ 12.5 µM) in the data set on Streptococcus pyogenes and 4 µg/mL (≈ 12.5 µM) in the data set on Enterococcus. Moreover, the highest level in [10] (Cmax) was 1500 ng/mL. The compound further had an AUC in [11] of 10000 ng·h/mL. Besides, in [12], the half-life was 3 h. Besides, the fraction unbound in [13] was 0.85.

For `CC1COc2c(N3CCN(C)CC3)c(F)cc3c(=O)c(C(=O)O)cn1c23` (stereo not drawn) [OFLOXACIN], the MIC90 turned out to be 0.12 µg/mL (≈ 0.332 µM) in the data set with Escherichia coli; 4 µg/mL (≈ 11.1 µM) in the data set on Pseudomonas aeruginosa; 0.5 µg/mL (≈ 1.38 µM) against Klebsiella; 16 µg/mL (≈ 44.3 µM) in the data set with Bacteroides fragilis; 0.03 µg/mL (≈ 0.083 µM) in the data set on Haemophilus influenzae; 0.5 µg/mL (≈ 1.38 µM) against Staphylococcus aureus. Besides, the MIC90 against Streptococcus pneumoniae was 2 µg/mL (≈ 5.53 µM); against Streptococcus pyogenes, 2 µg/mL (≈ 5.53 µM); in the data set with Enterococcus, 2 µg/mL (≈ 5.53 µM); with Clostridium perfringens, 1 µg/mL (≈ 2.77 µM). Further, in data set [10], the Cmax worked out at 4800 ng/mL. The same compound had an area under the curve (AUC) in data set [11] of 64000 ng·h/mL. In data set [12], this compound had a half-life of 6 h. Moreover, the fraction unbound in [13] was 0.6.

With `C[C@@H]1CN(c2c(F)c(N)c3c(=O)c(C(=O)O)cn(C4CC4)c3c2F)C[C@H](C)N1` [SPARFLOXACIN], the MIC90 in the data set on Escherichia coli is 0.06 µg/mL (≈ 0.153 µM); in the data set with Pseudomonas aeruginosa, 4 µg/mL (≈ 10.2 µM); against Klebsiella it was 0.5 µg/mL (≈ 1.27 µM); against Bacteroides fragilis, 4 µg/mL (≈ 10.2 µM); against Haemophilus influenzae, 0.03 µg/mL (≈ 0.0765 µM); in the data set with Staphylococcus aureus, 0.12 µg/mL (≈ 0.306 µM). For the same compound, the MIC90 with Streptococcus pneumoniae was found to be 0.5 µg/mL (≈ 1.27 µM); with Streptococcus pyogenes it was 1 µg/mL (≈ 2.55 µM); against Enterococcus, 2 µg/mL (≈ 5.1 µM); in the data set on Clostridium perfringens, 0.25 µg/mL (≈ 0.637 µM). In addition, the Cmax in [3] was 1000 ng/mL. This compound yielded an exposure (AUC) in data set [4] of 20000 ng·h/mL. In data set [5], this compound gave a half-life of 18 h. Further, the fraction unbound in data set [6] is 0.6. For the same compound, the Activity was more than 10% in data set [14], 0.5 to 2% in [1], more than 10% in the data set filed under Homo sapiens and 2.9% in data set [15].

Take `N[C@@H]1[C@H]2CN(c3nc4c(cc3F)c(=O)c(C(=O)O)cn4-c3ccc(F)cc3F)C[C@@H]12` [TROVAFLOXACIN]: the MIC90 against Escherichia coli came to 0.06 µg/mL (≈ 0.144 µM); against Pseudomonas aeruginosa it was 1 µg/mL (≈ 2.4 µM); with Haemophilus influenzae, 0.01 µg/mL (≈ 0.024 µM); in the data set on Staphylococcus aureus it was 0.03 µg/mL (≈ 0.0721 µM); in the data set with Streptococcus pneumoniae, 0.12 µg/mL (≈ 0.288 µM); against Enterococcus, 1 µg/mL (≈ 2.4 µM). In addition, the peak level in data set [16] (Cmax) was 2500 ng/mL. The compound further returned an AUC in data set [17] of 40000 ng·h/mL. Besides, the results for the Activity in data set [18] and in [19] were 2 to 11% and 12 to 16%, respectively.
